Columns and labels:
Experiment in all cases: combination Emax (second highest fraction inhibited in the dose matrix, 72 h); higher = more inhibition; extreme values may be limits of the assay
[1] = test system: CAL-39 (Other Solid Carcinomas)
Summary of the method: (§1)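 After 24 hours at 37°C and 5% CO2 in 1536-well plates, cells in DMEM/F12 or RPMI plus 10% FBS received two-drug dose matrices for 72 hours. Viability came from CellTiter-Glo 2.0 luminescence and was scaled as inhibition, anchored at 0 by vehicle wells and at 1 by blank wells. Combination Emax is taken as the second-highest inhibition in the matrix, and Bliss excess as the observed combination effect less EA + EB − EA·EB, with EA and EB the single-agent effects.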

SK-MEL-1 (Melanoma) = test system: SK-MEL-1 (Melanoma)
Summary of the method: as §1

H4 (Low Grade Glioma) = test system: H4 (Low Grade Glioma)
Summary of the method: as §1

HuO9 (Osteosarcoma) = test system: HuO9 (Osteosarcoma)
Summary of the method: as §1

[2] = test system: RCC10RGB (Kidney Carcinoma)
Summary of the method: as §1

[3] = test system: SW948 (Colorectal Carcinoma)
Summary of the method: as §1

[4] = test system: SW48 (Colorectal Carcinoma)
Summary of the method: as §1

MSTO-211H (Mesothelioma) = test system: MSTO-211H (Mesothelioma)
Summary of the method: as §1

MCF7 (Breast Carcinoma) = test system: MCF7 (Breast Carcinoma)
Summary of the method: as §1

[5] = test system: SKN-3 (Head and Neck Carcinoma)
Summary of the method: as §1

[6] = test system: HCT-116 (Colorectal Carcinoma)
Summary of the method: as §1

[7] = test system: HCC-827 (Lung Adenocarcinoma)
Summary of the method: as §1

[8] = test system: NCI-H1688 (Small Cell Lung Carcinoma)
Summary of the method: as §1

[9] = test system: EFM-192A (Breast Carcinoma)
Summary of the method: as §1

[10] = test system: NOMO-1 (Acute Myeloid Leukemia)
Summary of the method: as §1

[11] = test system: D-283MED (Other Solid Carcinomas)
Summary of the method: as §1

[12] = test system: SLVL (B-Cell Non-Hodgkin's Lymphoma)
Summary of the method: as §1

[13] = test system: SK-LMS-1 (Other Solid Carcinomas)
Summary of the method: as §1

Saos-2 (Osteosarcoma) = test system: Saos-2 (Osteosarcoma)
Summary of the method: as §1

Structure (SMILES)	combination Emax [1]	combination Emax (SK-MEL-1 (Melanoma))	combination Emax (H4 (Low Grade Glioma))	combination Emax (HuO9 (Osteosarcoma))	combination Emax [2]	combination Emax [3]	combination Emax [4]	combination Emax (MSTO-211H (Mesothelioma))	combination Emax (MCF7 (Breast Carcinoma))	combination Emax [5]	combination Emax [6]	combination Emax [7]	combination Emax [8]	combination Emax [9]	combination Emax [10]	combination Emax [11]	combination Emax [12]	combination Emax [13]	combination Emax (Saos-2 (Osteosarcoma))
COc1cc2ncnc(Nc3ccc(F)c(Cl)c3)c2cc1OCCCN1CCOCC1 [Gefitinib] + CC(C)n1c(=O)n(C)c2cnc3cc(F)c(-c4ccc(OCCCN5CCCCC5)nc4)cc3c21 [AZD1390] (first compound max 10 µM, 7x7, partner max 0.3 µM)	0.833	0.43	0.121	0.12	0.563	0.162	0.399	0.0343	0.0973	0.236	0.133	0.766	0.233	0.262	0.328	0.425	0.185	0.12	0.184
COc1nnc2ccc(N3CCC(c4ccc(OCCN5CCN(C)C(=O)[C@H]5C)cc4)CC3)nn12 [AZD5153] + Cc1c2c(nn1C)CSCc1cc(n(C)n1)CSc1cc(c3ccccc3c1)OCCCc1c(C(=O)O)n(C)c3c-2c(Cl)ccc13 [AZD5991] (first compound max 1 µM, 7x7, partner max 1 µM)	0.905	0.679	0.888	0.996	0.531	0.573	0.711	0.293	0.769	0.6	0.716	0.366	0.647	0.665	1	0.979	0.715	0.5	0.835
CC(=O)c1c(C)c2cnc(Nc3ccc(N4CCNCC4)cn3)nc2n(C2CCCC2)c1=O [Palbociclib] + Cc1c2c(nn1C)CSCc1cc(n(C)n1)CSc1cc(c3ccccc3c1)OCCCc1c(C(=O)O)n(C)c3c-2c(Cl)ccc13 [AZD5991] (first compound max 10 µM, 7x7, partner max 1 µM)	0.409	0.262	0.601	0.803	0.419	0.406	0.409	0.144	0.574	0.244	0.663	0.197	0.381	0.436	0.858	0.797	0.471	0.282	0.332
CS(=O)(=O)CCNCc1ccc(-c2ccc3ncnc(Nc4ccc(OCc5cccc(F)c5)c(Cl)c4)c3c2)o1 [Lapatinib] + C[C@@H](Oc1cc(-c2cnn(C3CCNCC3)c2)cnc1N)c1c(Cl)ccc(F)c1Cl [Crizotinib] (first compound max 10 µM, 7x7, partner max 10 µM)	1	0.954	0.944	0.982	0.908	0.819	0.911	0.263	0.981	0.738	0.956	0.896	0.742	0.878	0.828	0.985	0.65	0.864	0.889
CC(=O)c1c(C)c2cnc(Nc3ccc(N4CCNCC4)cn3)nc2n(C2CCCC2)c1=O [Palbociclib] + Cn1cnc2c(F)c(Nc3ccc(Br)cc3Cl)c(C(=O)NOCCO)cc21 [Selumetinib] (first compound max 10 µM, 7x7, partner max 10 µM)	0.775	0.83	0.632	0.419	0.547	0.665	0.626	0.137	0.366	0.349	0.851	0.22	0.147	0.169	0.858	0.582	0.593	0.437	0.232
C[C@@H](c1ccc2nccn2c1)n1nnc2ncc(-c3cnn(C)c3)nc21 [Savolitinib] + CC1(C)CCC(CN2CCN(c3ccc(C(=O)NS(=O)(=O)c4ccc(NCC5CCOCC5)c([N+](=O)[O-])c4)c(Oc4cnc5[nH]ccc5c4)c3)CC2)=C(c2ccc(Cl)cc2)C1 [Venetoclax] (first compound max 1 µM, 7x7, partner max 1 µM)	0.157	0.158	0.218	0.197	0.195	0.166	0.177	0.114	0.129	0.148	0.114	0.266	0.239	0.174	0.395	0.126	0.406	0.223	0.121

Reference: the supplement of paper PMC11061612
